Measured values: patent publication US11547697B2, “Heterocyclic compounds and uses thereof” (MILLENNIUM PHARMACEUTICALS, INC., priority 2009, dated 2023)
Where two headings read alike, the source gives them in different places.

Columns and labels:
p110α/p85α = p110α/p85α (Homo sapiens (Human), UniProt P42336); assay: PI 3-Kinase (human) HTRF assay, p110α/p85α; assay type: biochemical
p110γ = p110γ (Homo sapiens (Human), UniProt P48736); assay: PI 3-Kinase (human) HTRF assay, p110γ; assay type: biochemical
Chain of p110γ (P48736 whole entry): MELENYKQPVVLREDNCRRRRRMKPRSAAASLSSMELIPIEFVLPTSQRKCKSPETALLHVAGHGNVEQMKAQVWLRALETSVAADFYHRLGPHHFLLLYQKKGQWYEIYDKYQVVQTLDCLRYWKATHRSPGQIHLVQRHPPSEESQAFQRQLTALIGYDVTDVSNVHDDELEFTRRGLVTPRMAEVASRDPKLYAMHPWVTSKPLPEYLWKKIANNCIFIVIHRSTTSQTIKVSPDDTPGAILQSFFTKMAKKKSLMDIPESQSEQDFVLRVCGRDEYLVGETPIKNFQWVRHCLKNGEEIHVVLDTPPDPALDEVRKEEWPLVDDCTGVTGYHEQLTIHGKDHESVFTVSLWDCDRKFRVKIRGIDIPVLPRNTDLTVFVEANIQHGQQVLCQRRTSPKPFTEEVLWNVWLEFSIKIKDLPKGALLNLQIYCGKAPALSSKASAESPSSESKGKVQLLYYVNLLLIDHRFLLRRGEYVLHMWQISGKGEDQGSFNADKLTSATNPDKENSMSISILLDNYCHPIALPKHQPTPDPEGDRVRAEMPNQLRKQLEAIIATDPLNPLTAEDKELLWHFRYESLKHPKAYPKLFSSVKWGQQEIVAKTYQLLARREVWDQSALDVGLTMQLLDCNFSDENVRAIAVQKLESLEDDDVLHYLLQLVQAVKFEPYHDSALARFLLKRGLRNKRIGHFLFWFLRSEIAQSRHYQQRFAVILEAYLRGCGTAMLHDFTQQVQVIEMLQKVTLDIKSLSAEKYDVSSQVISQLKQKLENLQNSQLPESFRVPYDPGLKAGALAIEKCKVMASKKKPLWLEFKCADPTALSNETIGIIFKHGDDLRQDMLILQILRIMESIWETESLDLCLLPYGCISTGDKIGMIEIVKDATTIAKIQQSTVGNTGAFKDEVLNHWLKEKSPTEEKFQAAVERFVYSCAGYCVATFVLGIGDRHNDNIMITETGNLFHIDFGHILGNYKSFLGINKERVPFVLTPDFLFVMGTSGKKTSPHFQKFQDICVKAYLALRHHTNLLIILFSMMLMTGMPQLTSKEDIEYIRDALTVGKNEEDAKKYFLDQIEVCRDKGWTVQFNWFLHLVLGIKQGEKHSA

p110δ/p85α = p110δ/p85α (Homo sapiens (Human), UniProt O00329); assay: PI 3-Kinase (human) HTRF assay, p110δ/p85α; assay type: biochemical
[1] = test system: tumor cells with a PI3Kα mutation (e.g., MDA-MB-361 and T47D); assay: Proliferation of tumor cells with PI3Kα mutation; assay type: cell-based; details: Homo sapiens, T47D cells
recombinant mTOR = recombinant mTOR (Homo sapiens (Human), UniProt P42345); assay: mTOR inhibition assay (radiometric or LanthaScreen TR-FRET); assay type: biochemical
Chain of recombinant mTOR (P42345 1360-2549): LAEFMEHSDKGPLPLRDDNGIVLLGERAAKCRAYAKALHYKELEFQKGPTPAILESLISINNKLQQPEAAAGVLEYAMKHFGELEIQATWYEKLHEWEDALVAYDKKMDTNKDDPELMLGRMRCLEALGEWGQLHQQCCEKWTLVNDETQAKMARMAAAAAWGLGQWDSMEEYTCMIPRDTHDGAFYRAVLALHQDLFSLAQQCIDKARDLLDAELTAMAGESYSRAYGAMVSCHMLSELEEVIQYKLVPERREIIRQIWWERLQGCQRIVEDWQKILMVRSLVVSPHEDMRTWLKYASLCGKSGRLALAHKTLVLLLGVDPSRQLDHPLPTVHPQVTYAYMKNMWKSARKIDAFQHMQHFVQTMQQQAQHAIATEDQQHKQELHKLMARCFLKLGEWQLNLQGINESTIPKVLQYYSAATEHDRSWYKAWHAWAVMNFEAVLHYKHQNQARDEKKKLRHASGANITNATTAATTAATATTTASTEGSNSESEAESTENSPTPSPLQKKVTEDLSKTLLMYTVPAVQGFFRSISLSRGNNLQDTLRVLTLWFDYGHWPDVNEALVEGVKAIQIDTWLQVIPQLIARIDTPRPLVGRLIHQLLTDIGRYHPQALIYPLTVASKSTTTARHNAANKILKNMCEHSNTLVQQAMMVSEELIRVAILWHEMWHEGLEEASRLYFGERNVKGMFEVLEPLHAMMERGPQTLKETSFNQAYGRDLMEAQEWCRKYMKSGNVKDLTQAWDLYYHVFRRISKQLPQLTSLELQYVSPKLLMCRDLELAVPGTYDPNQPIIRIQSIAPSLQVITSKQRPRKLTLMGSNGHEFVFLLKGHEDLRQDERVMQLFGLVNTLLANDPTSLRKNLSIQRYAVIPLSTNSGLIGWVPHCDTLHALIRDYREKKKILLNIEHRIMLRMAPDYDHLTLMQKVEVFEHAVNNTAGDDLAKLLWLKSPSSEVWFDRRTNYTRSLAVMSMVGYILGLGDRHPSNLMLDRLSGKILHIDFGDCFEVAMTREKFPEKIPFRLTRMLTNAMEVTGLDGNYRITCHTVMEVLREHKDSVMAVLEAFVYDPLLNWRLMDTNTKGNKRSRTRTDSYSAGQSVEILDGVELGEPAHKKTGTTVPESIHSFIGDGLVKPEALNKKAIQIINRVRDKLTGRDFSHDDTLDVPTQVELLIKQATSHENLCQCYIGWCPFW
Experimental: The compounds described herein can be tested against recombinant mTOR (Invitrogen) in an assay containing 50 mM HEPES, pH 7.5, 1 mM EGTA, 10 mM MgCl2, 2.5 mM, 0.01% Tween, 10 pM ATP (2.5 μCi of μ-32P-ATP), and 3 μg/mL BSA. R^at recombinant PHAS-1/4EBP1 (Calbiochem; 2 mg/mL) is used as a substrate. Reactions are terminated by spotting onto nitrocellulose, which is washed with 1M NaCl/1% phosphoric acid (approximately 6 times, 5-10 minutes each). Sheets are dried and the transferred radioactivity quantitated by phosphorimaging.
For instance, one can use Invitrogen's LanthaScreen™ Kinase assay to test the inhibitors of mTOR disclosed herein. This assay is a time resolved FRET platform that measures the phosphorylation of GFP labeled 4EBP1 by mTOR kinase. The kinase reaction is performed in a white 384 well microtitre plate. The total reaction volume is 20 ul per well and the reaction buffer composition is 50 mM HEPES pH7.5, 0.01% Polysorbate 20, 1 mM EGTA, 10 mM MnCl2, and 2 mM DTT. In the first step, each well receives 2 ul of test compound in 20% dimethylsulphoxide resulting in a 2% DMSO final concentration. Next, 8 ul of mTOR diluted in reaction buffer is added per well for a 60 ng/ml final concentration. To start the reaction, 10 ul of an ATP/GFP-4EBP1 mixture (diluted in reaction buffer) is added per well for a final concentration of 10 μM ATP and 0.5 μM GFP-4EBP1. The plate is sealed and incubated for 1 hour at room temperature. […] The plate is sealed, incubated for 1 hour at room temperature, and then read on a plate reader set up for LanthaScreen™ TR-FRET. Data is analyzed and IC50s are generated using GraphPad Prism 5.

p110β/p85α = p110β/p85α (Homo sapiens (Human), UniProt P42338); assay: PI 3-Kinase (human) HTRF assay, p110β/p85α; assay type: biochemical
Chain of p110β/p85α (P42338 whole entry): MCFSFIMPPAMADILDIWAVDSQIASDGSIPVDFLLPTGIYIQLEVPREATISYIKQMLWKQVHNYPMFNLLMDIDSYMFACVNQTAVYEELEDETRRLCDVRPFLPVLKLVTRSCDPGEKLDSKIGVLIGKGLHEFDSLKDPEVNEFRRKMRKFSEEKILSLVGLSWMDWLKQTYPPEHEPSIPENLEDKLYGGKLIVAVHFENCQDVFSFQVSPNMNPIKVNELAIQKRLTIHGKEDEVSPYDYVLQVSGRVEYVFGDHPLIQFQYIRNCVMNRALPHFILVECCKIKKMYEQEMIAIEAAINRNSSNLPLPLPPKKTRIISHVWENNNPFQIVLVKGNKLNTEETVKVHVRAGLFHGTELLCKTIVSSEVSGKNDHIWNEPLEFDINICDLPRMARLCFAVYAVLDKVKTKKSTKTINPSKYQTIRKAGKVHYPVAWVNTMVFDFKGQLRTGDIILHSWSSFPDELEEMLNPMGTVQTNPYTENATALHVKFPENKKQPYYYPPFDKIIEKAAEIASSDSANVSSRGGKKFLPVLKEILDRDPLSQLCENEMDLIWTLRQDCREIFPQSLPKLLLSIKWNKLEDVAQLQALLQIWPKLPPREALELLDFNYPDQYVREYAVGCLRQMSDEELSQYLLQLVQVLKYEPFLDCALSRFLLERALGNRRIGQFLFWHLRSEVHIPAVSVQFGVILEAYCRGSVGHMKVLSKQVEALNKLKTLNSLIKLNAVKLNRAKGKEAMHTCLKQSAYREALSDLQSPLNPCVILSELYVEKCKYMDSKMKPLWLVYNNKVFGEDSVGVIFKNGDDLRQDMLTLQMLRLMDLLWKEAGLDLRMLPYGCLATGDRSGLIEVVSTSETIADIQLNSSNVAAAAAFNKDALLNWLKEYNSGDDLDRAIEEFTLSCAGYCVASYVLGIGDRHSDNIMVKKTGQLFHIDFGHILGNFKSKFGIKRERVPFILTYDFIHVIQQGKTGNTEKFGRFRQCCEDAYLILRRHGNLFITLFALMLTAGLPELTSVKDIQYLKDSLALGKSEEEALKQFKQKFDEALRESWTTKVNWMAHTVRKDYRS
Chain of p110β/p85α (P27986 whole entry partner): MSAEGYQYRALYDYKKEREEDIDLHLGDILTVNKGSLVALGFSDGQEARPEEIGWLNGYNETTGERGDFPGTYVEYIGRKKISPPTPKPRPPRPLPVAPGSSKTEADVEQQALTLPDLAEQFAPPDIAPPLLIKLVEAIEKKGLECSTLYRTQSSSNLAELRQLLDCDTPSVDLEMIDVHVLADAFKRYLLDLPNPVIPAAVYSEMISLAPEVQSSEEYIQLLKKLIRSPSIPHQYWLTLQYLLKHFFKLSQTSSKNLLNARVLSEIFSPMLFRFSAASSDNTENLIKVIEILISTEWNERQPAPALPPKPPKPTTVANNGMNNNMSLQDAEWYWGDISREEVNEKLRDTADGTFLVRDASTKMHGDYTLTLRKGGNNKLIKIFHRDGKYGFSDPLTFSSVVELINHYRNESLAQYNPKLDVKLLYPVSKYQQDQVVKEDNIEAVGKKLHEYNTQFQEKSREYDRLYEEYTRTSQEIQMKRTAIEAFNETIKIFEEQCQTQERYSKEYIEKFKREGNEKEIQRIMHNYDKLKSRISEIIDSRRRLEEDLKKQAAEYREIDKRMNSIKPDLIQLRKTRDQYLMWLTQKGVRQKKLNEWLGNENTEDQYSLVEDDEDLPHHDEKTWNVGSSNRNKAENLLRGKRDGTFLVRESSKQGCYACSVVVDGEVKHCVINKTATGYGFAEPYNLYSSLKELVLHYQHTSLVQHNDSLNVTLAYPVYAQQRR

[2] = in vitro, read-out: PI3K β IC50
[3] = in vitro, read-out: PI3K α IC50
[4] = in vitro, read-out: PI3K γ IC50
[5] = read-out: T47D proliferation IC50
[6] = in vitro, read-out: PI3K δ IC50

| Structure (SMILES) | IC50 (p110α/p85α; read-out: PI3K α IC50) | IC50 (p110γ; read-out: PI3K γ IC50) | IC50 ([1]; read-out: T47D proliferation) | IC50 (recombinant mTOR; read-out: MTORC IC50) | IC50 (p110β/p85α; [2]) | IC50 (p110α/p85α; [3]) | IC50 (p110γ; [4]) | IC50 [1, 5] | IC50 (recombinant mTOR; in vitro, read-out: MTORC IC50) | IC50 (p110δ/p85α; [6]) | other results |
| --- | --- | --- | --- | --- | --- | --- | --- | --- | --- | --- | --- |
| CN1CCC(Nc2ncnc3ccc(-c4ccc5oc(N)nc5c4)cc23)CC1 [compound 35] | < 100 nM | < 100 nM | < 10000 nM | < 10000 nM |  |  |  |  |  |  | IC50 (p110δ/p85α; read-out: PI3K δ IC50): < 100 nM |
| CN1CCC(n2cnc3ccc(-c4ccc5oc(N)nc5c4)cc3c2=O)CC1 [compound 36] | < 100 nM |  | < 10000 nM | < 10000 nM |  |  |  |  |  |  | IC50 (p110δ/p85α; read-out: PI3K δ IC50): < 10000 nM |
| Cn1cc(-c2cnc3ccc(-c4ccc5oc(N)nc5c4)cn23)cn1 [compound 41] | < 100 nM | < 1000 nM | < 10000 nM | < 10000 nM |  |  |  |  |  |  | IC50 (p110δ/p85α; read-out: PI3K δ IC50): < 1000 nM |
| Nc1nc2cc(-c3ccc4ncnc(OC5CCOCC5)c4c3)ccc2o1 [compound 47] | < 100 nM | < 1000 nM | < 1000 nM | < 100 nM |  |  |  |  |  |  | IC50 (p110β/p85α; read-out: PI3K β IC50): < 1000 nM; IC50 (p110δ/p85α; read-out: PI3K δ IC50): < 1000 nM |
| Nc1nc2cc(-c3ccc4ncc(OC5CCOCC5)nc4c3)ccc2o1 [compound 49] | < 100 nM | < 1000 nM | < 10000 nM | < 10000 nM |  |  |  |  |  |  | IC50 (p110δ/p85α; read-out: PI3K δ IC50): < 10000 nM |
| Cc1nc2ccc(-c3ccc4oc(N)nc4c3)nn2c1-c1ccncc1 [compound 56] | < 100 nM | < 100 nM | < 10000 nM | < 1000 nM |  |  |  |  |  |  | IC50 (p110β/p85α; read-out: PI3K β IC50): < 1000 nM |
| Nc1nc2cc(-c3ccc4ncc(N5CCOCC5)nc4c3)ccc2o1 [compound 64] | < 100 nM | < 100 nM | < 10000 nM | < 10000 nM |  |  |  |  |  |  | IC50 (p110β/p85α; read-out: PI3K β IC50): < 1000 nM |
| CC(C)N1CCC(n2cnc3ccc(-c4ccc5oc(N)nc5c4)cc3c2=O)CC1 [compound 74] | < 100 nM | < 10000 nM | < 10000 nM | < 10000 nM |  |  |  |  |  |  | IC50 (p110β/p85α; read-out: PI3K β IC50): < 10000 nM |
| Nc1nc2cc(-c3ccc4ncc(-c5cccnc5)nc4c3)ccc2o1 [compound 76] | < 100 nM | < 1000 nM | < 10000 nM | < 10000 nM |  |  |  |  |  |  |  |
| CCOC(=O)N1CCN(c2cnc3ccc(-c4ccc5oc(N)nc5c4)cc3n2)CC1 [compound 119] | < 100 nM | < 10000 nM | < 10000 nM | < 10000 nM |  |  |  |  |  |  | IC50 (p110β/p85α; read-out: PI3K β IC50): < 10000 nM; IC50 (p110δ/p85α; read-out: PI3K δ IC50): < 10000 nM |
| Nc1nc2cc(-c3ccc4ncc(N5CC(C(=O)N6CCOCC6)C5)nc4c3)ccc2o1 [compound 169] | < 100 nM | < 1000 nM | < 1000 nM | < 10000 nM |  |  |  |  |  |  | IC50 (p110β/p85α; read-out: PI3K β IC50): < 1000 nM; IC50 (p110δ/p85α; read-out: PI3K δ IC50): < 1000 nM |
| CN1CCN(C(=O)C2CN(c3cnc4ccc(-c5ccc6oc(N)nc6c5)cc4n3)C2)CC1 [compound 170] | < 100 nM | < 10000 nM | < 1000 nM | < 10000 nM |  |  |  |  |  |  | IC50 (p110β/p85α; read-out: PI3K β IC50): < 1000 nM; IC50 (p110δ/p85α; read-out: PI3K δ IC50): < 1000 nM |
| Nc1nc2cc(-c3ccc4ncc(N5CC[C@H](O)C5)nc4c3)ccc2o1 [compound 262] |  |  |  |  | < 1000 nM | < 100 nM | < 1000 nM | < 10000 nM | < 10000 nM |  |  |
| C[C@@H]1CN(C(=O)C2CN(c3cnc4ccc(-c5ccc6oc(N)nc6c5)cc4n3)C2)CCN1 [compound 267] |  |  |  |  | < 10000 nM | < 100 nM | < 1000 nM | < 1000 nM | < 10000 nM | < 1000 nM |  |
| CC(C)[C@@H](N)C(=O)N1CCN(c2cnc3ccc(-c4ccc5oc(N)nc5c4)cc3n2)CC1 [compound 270] |  |  |  |  | < 1000 nM | < 100 nM | < 1000 nM | < 1000 nM | < 10000 nM | < 1000 nM |  |
| Nc1nc2cc(-c3ccc4ncc(N5CC(N6CCOCC6)C5)nc4c3)ccc2o1 [compound 273] |  |  |  |  |  | < 100 nM | < 10000 nM | < 1000 nM | < 1000 nM |  |  |

| Structure (SMILES) | IC50 (p110α/p85α; read-out: PI3K α IC50) | IC50 (p110γ; read-out: PI3K γ IC50) | IC50 ([1]; read-out: T47D proliferation) | IC50 (recombinant mTOR; read-out: MTORC IC50) | IC50 (p110β/p85α; [2]) | IC50 (p110α/p85α; [3]) | IC50 (p110γ; [4]) | IC50 [1, 5] | IC50 (recombinant mTOR; in vitro, read-out: MTORC IC50) | IC50 (p110δ/p85α; [6]) | other results |
| --- | --- | --- | --- | --- | --- | --- | --- | --- | --- | --- | --- |
| CN1CCN(C2CN(c3cnc4ccc(-c5ccc6oc(N)nc6c5)cc4n3)C2)CC1 [compound 274] |  |  |  |  | < 10000 nM | < 100 nM | < 10000 nM | < 1000 nM | < 10000 nM | < 10000 nM |  |
| Nc1nc2cc(-c3ccc4ncc(N5CC(C(=O)N6CCN(C7CC7)CC6)C5)nc4c3)ccc2o1 [compound 276] |  |  |  |  | < 10000 nM | < 100 nM | < 1000 nM | < 1000 nM | < 10000 nM | < 1000 nM |  |
| CN1CCN(c2cnc3ccc(-c4ccc5oc(N)nc5c4)cc3n2)CC1=O [compound 277] |  |  |  |  | < 1000 nM | < 100 nM | < 1000 nM | < 1000 nM | < 10000 nM | < 10000 nM |  |
| Nc1nc2cc(-c3ccc4ncc(N5CCN(C(=O)[C@@H](N)CO)CC5)nc4c3)ccc2o1 [compound 298] |  |  |  |  | < 1000 nM | < 100 nM | < 10000 nM | < 10000 nM | < 10000 nM | < 10000 nM |  |
| CN1CCN(C2CN(C(=O)c3cnc4ccc(-c5ccc6oc(N)nc6c5)cn34)C2)CC1 [compound 303] |  |  |  |  |  | < 100 nM |  | < 1000 nM | < 10000 nM | < 10000 nM |  |
| Nc1nc2cc(-c3ccc4ncc(N5CCC(n6ccnc6)CC5)nc4c3)ccc2o1 [compound 345] |  |  |  |  | < 1000 nM | < 100 nM | < 1000 nM |  | < 10000 nM | < 1000 nM |  |
| Nc1nc2cc(-c3nc(N4CCOCC4)c4cnn(C5CCNCC5)c4n3)ccc2o1 [compound 348] |  |  |  |  | < 100 nM | < 1000 nM | < 1000 nM |  | < 1000 nM | < 10000 nM |  |
| Cc1nccn1C1CN(c2cnc3ccc(-c4ccc5oc(N)nc5c4)cc3n2)C1 [compound 354] |  |  |  |  | < 10000 nM | < 100 nM | < 10000 nM | < 1000 nM | < 10000 nM | < 10000 nM |  |
| CS(=O)(=O)N1CCN(C2CCN(c3cnc4ccc(-c5ccc6oc(N)nc6c5)cc4n3)CC2)CC1 [compound 377] |  |  |  |  | < 10000 nM | < 100 nM | < 1000 nM |  | < 10000 nM | < 10000 nM |  |
| CN(C)[C@@H]1CCN(c2cnc3ccc(-c4ccc5oc(N)nc5c4)cc3n2)C1 [compound 378] |  |  |  |  | < 100 nM | < 100 nM | < 10000 nM |  | < 1000 nM | < 10000 nM |  |
| Nc1nc2cc(-c3ccc4ncc(N5CCNC(C(F)(F)F)C5)nc4c3)ccc2o1 (stereo not drawn) [compound 384] |  |  |  |  | < 1000 nM | < 100 nM | < 1000 nM |  | < 1000 nM | < 10000 nM |  |
| CC1(C)CN(C2CN(c3cnc4ccc(-c5ccc6oc(N)nc6c5)cc4n3)C2)CCN1 [compound 388] |  |  |  |  | < 1000 nM | < 100 nM | < 1000 nM |  | < 100 nM | < 1000 nM |  |
| COc1ncc(-c2ccc3ncc(C(=O)N4CCOCC4)n3c2)cc1NS(=O)(=O)c1ccc(F)cc1F [compound 417] |  |  |  |  |  |  |  |  |  |  | IC50 (p110β/p85α; read-out: PI3K β In Vitro IC50): < 100 nM; IC50 (p110α/p85α; read-out: PI3K α In Vitro IC50): < 100 nM; IC50 (p110γ; read-out: PI3K γ In Vitro IC50): < 100 nM; IC50 (p110δ/p85α; read-out: PI3K δ In Vitro IC50): < 100 nM; IC50 (recombinant mTOR; read-out: MTORC In Vitro IC50): < 1000 nM |
| CS(=O)(=O)Nc1cc(-c2ccc3ncc(C(=O)N4CCOCC4)n3c2)cnc1Cl [compound 418] |  |  |  |  |  |  |  |  |  |  | IC50 (p110β/p85α; read-out: PI3K β In Vitro IC50): < 100 nM; IC50 (p110α/p85α; read-out: PI3K α In Vitro IC50): < 100 nM; IC50 (p110γ; read-out: PI3K γ In Vitro IC50): < 100 nM; IC50 (p110δ/p85α; read-out: PI3K δ In Vitro IC50): < 100 nM; IC50 (recombinant mTOR; read-out: MTORC In Vitro IC50): < 100 nM |
| O=C(c1cnc2ccc(-c3cnc(Cl)c(NS(=O)(=O)c4ccc(F)cc4F)c3)cn12)N1CCOCC1 [compound 419] |  |  |  |  |  |  |  |  |  |  | IC50 (p110β/p85α; read-out: PI3K β In Vitro IC50): < 100 nM; IC50 (p110α/p85α; read-out: PI3K α In Vitro IC50): < 100 nM; IC50 (p110γ; read-out: PI3K γ In Vitro IC50): < 100 nM; IC50 (p110δ/p85α; read-out: PI3K δ In Vitro IC50): < 100 nM; IC50 (recombinant mTOR; read-out: MTORC In Vitro IC50): < 1000 nM |
